What all share (assay): NCI anticancer screen, dose series, 48 h
Test [1] relates to ACHN.
The test system of test [2] is CAKI-1.
The subject of test [3] is COLO 205.
Test [4] relates to DU-145.
Test [5] deals with HCT-116.
For test [6], the system named is HOP-92.
The subject of test [7] is Hs-578T.
Test [8] relates to IGROV-1.
The subject of test [9] is KM12.
The subject of test [10] is Malme-3M.
Test [11] has as its system NCI-H226.
Test [12] relates to NCI-H23.
The subject of test [13] is NCI-H522.
Test [14] deals with OVCAR-4.
Test [15] relates to OVCAR-5.
The test system of test [16] is OVCAR-8.
Test [17] deals with SF-295.
The subject of test [18] is SNB-19.
Test [19] relates to UACC-62.
Test [20] relates to UO-31.

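96-well plates; 48 h exposure; 5 concentrations. Endpoints by linear interpolation between flanking doses. Not reached: highest tested concentration assigned. GI50 = concentration required for 50% inhibition of growth.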 Calls of active or inactive are those of the source. Rule as the data show it: active = GI50 up to about 1.1 µM and inactive = higher.

Data on ten compounds can be found in ChEMBL document CHEMBL1201862, “PubChem BioAssay data set” (2004).

`O=c1[nH]cnc2c1sc1nc3ccccc3n12`: the GI50 was > 100 µM (inactive) in test [1]; > 100 µM (inactive) in test [2]; > 100 µM (inactive) in test [3]; > 100 µM (inactive) in [4]; 70.3 µM (inactive) in [5]; > 100 µM (inactive) in [6]. Besides, the GI50 in test [7] was 51.6 µM (inactive); in test [8], 63.8 µM (inactive); in [9], 5.96 µM (inactive); in [10], > 100 µM (inactive); in [11], > 100 µM (inactive); in test [12], > 100 µM (inactive). The GI50 in test [13], in test [14], in test [15], in test [16], in test [17] and in test [18] was > 100 µM (inactive) in each case. The GI50 was 30.5 µM (inactive) in test [19] and 42.3 µM (inactive) in [20].

Take `CC(C)(C)c1cc(C(=O)/C=C/c2c(Cl)cccc2Cl)cc(C(C)(C)C)c1O`: the GI50 in test [1] was 14.7 µM (inactive); in test [2], 22.2 µM (inactive); in test [3], 15.9 µM (inactive); in test [4], 23 µM (inactive); in [5], 8.83 µM (inactive); in [6], 25.8 µM (inactive). Further, the GI50 in test [7] is 25.2 µM (inactive); in [8], 23.4 µM (inactive); in [9], 13.1 µM (inactive); in [10], 18.6 µM (inactive); in [11], 17.8 µM (inactive); in test [12], 16.1 µM (inactive). Besides, the GI50 in test [13] was 5.57 µM (inactive); in test [14], 28.7 µM (inactive); in test [15], 19.2 µM (inactive); in test [16] it was 18.9 µM (inactive); in test [17], 11.5 µM (inactive); in [18], 11.9 µM (inactive). For the same compound, the GI50 in [19] was 12.8 µM (inactive); in test [20], 14.9 µM (inactive).

Turning to `O=C(/C=C/c1ccccc1O)CC(=O)/C=C/c1ccccc1O`, the GI50 is 5.92 µM (inactive) in test [1]; 17.9 µM (inactive) in test [2]; 3.95 µM (inactive) in [3]; 14.5 µM (inactive) in [4]; 2.38 µM (inactive) in test [5]; 5.81 µM (inactive) in test [6]. The GI50 was 8.17 µM (inactive) in [7]; 5.73 µM (inactive) in [8]; 6.4 µM (inactive) in [9]; 11.7 µM (inactive) in [10]; > 10 µM (inactive) in test [11]; 2.81 µM (inactive) in test [12]. Further, the GI50 in [13] was 3.72 µM (inactive); in test [14], 15.1 µM (inactive); in test [15], > 10 µM (inactive); in test [16] it was 4.41 µM (inactive); in test [17] it was 6.53 µM (inactive); in [18], 9.84 µM (inactive). The values for the GI50 in test [19] and in test [20] were 4.93 µM (inactive) and 4.73 µM (inactive), respectively.

For `NC(=O)c1nc[nH]c1/N=N/SCC(N)C(=O)O` (stereo not given), the GI50 is 13 µM (inactive) in test [1]; 4.21 µM (inactive) in test [2]; 21.2 µM (inactive) in test [3]; 5.11 µM (inactive) in test [4]; 6.9 µM (inactive) in [5]; 15.7 µM (inactive) in [6]. The GI50 was > 56.9 µM (inactive) in test [7]; 12.8 µM (inactive) in test [8]; 14.2 µM (inactive) in test [9]; 5.9 µM (inactive) in test [10]; > 44.8 µM (inactive) in test [11]; > 78.9 µM (inactive) in test [12]. Further, the GI50 in test [13] is > 68.7 µM (inactive); in test [14] it was 11.3 µM (inactive); in test [15] it was > 94 µM (inactive); in test [16] it was 5.74 µM (inactive); in test [17] it was 6.32 µM (inactive); in test [18], > 100 µM (inactive). In addition, the GI50 in test [19] was 6.31 µM (inactive); in test [20] it was 4.22 µM (inactive).

For `COc1cc(/C=C/c2cc(=O)cc(/C=C/c3ccc(O)c(OC)c3)o2)ccc1O`, the GI50 in test [1] was 48.1 µM (inactive); in [2], 64.3 µM (inactive); in test [3], > 100 µM (inactive); in [4], 31 µM (inactive); in [5], > 55.5 µM (inactive); in test [6] it was 17.9 µM (inactive). Further, the GI50 in test [7] is 24.4 µM (inactive); in test [8], > 100 µM (inactive); in test [9] it was > 38.3 µM (inactive); in test [10], > 69.5 µM (inactive); in test [11], 29.3 µM (inactive); in [12], 59.7 µM (inactive). In addition, the GI50 was 9.79 µM (inactive) in test [13]; 16.4 µM (inactive) in test [14]; > 100 µM (inactive) in test [15]; 46.2 µM (inactive) in test [16]; 32.4 µM (inactive) in test [17]; > 92 µM (inactive) in test [18]. The GI50 is 44.1 µM (inactive) in [19] and > 100 µM (inactive) in test [20].

Turning to `COc1ccc2c(c1OC)C(=O)N1C2=Cc2c(cc3c(c2OC)OCO3)CC1N(C)C` (stereo not given), the GI50 is 29.9 µM (inactive) in test [1]; > 100 µM (inactive) in [2]; 58.2 µM (inactive) in test [3]; 43.8 µM (inactive) in test [4]; 35.3 µM (inactive) in test [5]; 30.3 µM (inactive) in test [6]. The GI50 in test [7] was 34.8 µM (inactive); in test [8], > 100 µM (inactive); in test [9], 34 µM (inactive); in test [10] it was 51.4 µM (inactive); in test [11] it was 40.4 µM (inactive); in [12], 34 µM (inactive). The GI50 in [13] is 28.9 µM (inactive); in test [14], 30.1 µM (inactive); in test [15], > 100 µM (inactive); in test [16] it was 35.7 µM (inactive); in test [17], 50.8 µM (inactive); in test [18], > 100 µM (inactive). The GI50 in [19] was 27.5 µM (inactive); in test [20], 29.9 µM (inactive).

With `C[C@H](CCc1nc(C#N)c(N)o1)[C@H]1CC[C@H]2[C@@H]3CCC4C[C@@H](O)CC[C@]4(C)[C@H]3C[C@@H](O)[C@]12C` (stereo not given in full), the GI50 in [1] was 14.9 µM (inactive); in [2], 14.4 µM (inactive); in [3], 12.7 µM (inactive); in test [4], 14.5 µM (inactive); in test [5], 12.7 µM (inactive); in test [6] it was 14.4 µM (inactive). The GI50 in test [7] is 8.55 µM (inactive); in [8] it was 6.24 µM (inactive); in [9], 10.7 µM (inactive); in test [10], 14.4 µM (inactive); in test [11] it was 8.38 µM (inactive); in [12] it was 17.3 µM (inactive). Moreover, the GI50 in test [13] is 3.65 µM (inactive); in [14], 1.03 µM (active); in [15], 18.6 µM (inactive); in test [16], 4.56 µM (inactive); in test [17], 14.4 µM (inactive); in test [18], 16.4 µM (inactive). The GI50 was 12.1 µM (inactive) in test [19] and 4.53 µM (inactive) in [20].

For `Cc1ccccc1/N=N/c1c(O)c(S(=O)(=O)O)cc2cc(S(=O)(=O)O)ccc12`, the GI50 in [1], in test [2], in [3], in test [4], in test [5] and in test [6] was > 100 µM (inactive) each time. Also, the GI50 in [7], in test [8], in test [9], in test [10], in [11] and in [12] was > 100 µM (inactive) in each case. For the same compound, the GI50 in test [13], in test [14], in test [15], in test [16], in [17] and in test [18] was > 100 µM (inactive) in each case. Moreover, the GI50 in test [19] and in [20] was > 100 µM (inactive) each time.

For `CCOP(=O)(O)C(Nc1ccc(/N=N/c2ccccc2)cc1)c1ccc(C(Nc2ccc(/N=N/c3ccccc3)cc2)P(=O)(O)OCC)cc1` (stereo not given), the GI50 in [1] was > 100 µM (inactive); in [2], 44.6 µM (inactive); in test [3] it was 15.3 µM (inactive); in test [4], > 100 µM (inactive); in test [5], 18.3 µM (inactive); in [6], 22.1 µM (inactive). For the same compound, the GI50 in test [7] was 18.6 µM (inactive); in test [8], 19.7 µM (inactive); in test [9] it was 16.5 µM (inactive); in [10], 17.9 µM (inactive); in test [11], 40.3 µM (inactive); in test [12], 29.2 µM (inactive). For the same compound, the GI50 in test [13] was 18.6 µM (inactive); in test [14], 42.8 µM (inactive); in [15] it was 22.4 µM (inactive); in test [16], 16.3 µM (inactive); in test [17], 18.9 µM (inactive); in test [18], 21.5 µM (inactive). Moreover, the GI50 in test [19] is 19.2 µM (inactive); in [20], 67.1 µM (inactive).

With `CCc1nc(N)nc(N)c1-c1ccc(Cl)c([N+]#N)c1`, the GI50 in test [1] was 39.4 µM (inactive); in test [2], 58.3 µM (inactive); in [3] it was 56 µM (inactive); in test [4] it was 80.2 µM (inactive); in test [5] it was 41.8 µM (inactive); in test [6], > 100 µM (inactive). The GI50 in [7] was 46.6 µM (inactive); in test [8] it was 6.58 µM (inactive); in [9], 38.1 µM (inactive); in test [10], > 100 µM (inactive); in [11] it was > 100 µM (inactive); in test [12], 28.5 µM (inactive). Besides, the GI50 is 38.7 µM (inactive) in [13]; > 100 µM (inactive) in test [14]; > 100 µM (inactive) in [15]; 66.8 µM (inactive) in [16]; 39 µM (inactive) in test [17]; > 100 µM (inactive) in test [18]. Moreover, the GI50 in [19] was 41 µM (inactive); in test [20], 78.3 µM (inactive).
